Earlier results as cited in patent US20220241222A1, “ATOMOXETINE HYDROCHLORIDE EXTENDED RELEASE COMPOSITIONS AND METHODS OF USE” (CELISTA PHARMACEUTICALS LLC, priority 2019, published 2022).
Read-outs that look alike come from different tables or passages of the source.

Legend:
[1] = for mean apparent plasma clearance / mean half-life: oral administration
[2] = oral, immediate release capsules
[3] = CYP2D6 poor metabolizers vs EMs
[4] = primarily as 4-hydroxyatomoxetine-O-glucuronide

CNCC[C@@H](Oc1ccccc1C)c1ccccc1.Cl [Atomoxetine hydrochloride, (−)-N-Methyl-3-phenyl-3-(o-tolyloxy)-propylamine hydrochloride]
absolute bioavailability ([1]; extensive metabolizers): 63%
absorption after oral administration ([1]; from immediate release capsules): well-absorbed
effect of food on absorption [1, 2]: minimally affected by food
estimated half-life [1, 2]: about 5 hours
absolute bioavailability ([1]; poor metabolizers): 94%

Cc1ccccc1O[C@H](CCN)c1ccccc1 [N-desmethylatomoxetine, N-Desmethylatomoxetine]
plasma concentrations compared with atomoxetine ([1]; circulating metabolite): lower concentrations

CNCC[C@@H](Oc1ccccc1C)c1ccccc1 [atomoxetine, (−)-N-Methyl-3-phenyl-3-(o-tolyloxy)-propylamine]
pressor response (patients with central autonomic impairment (multiple system atrophy)): large pressor responses
seated and standing systolic blood pressure compared to placebo (pediatric dose of 18 mg): significantly increases
AUC of atomoxetine, PMs greater than EMs [1, 3]: approximately 10 fold
Css, max, PMs greater than EMs [1, 3]: about 5 fold
mean apparent plasma clearance ([1]; PMs): 0.5 mL/min/kg
mean half-life ([1]; PMs): 21.6 h
mean apparent plasma clearance ([1]; adult EMs): 5.83 mL/min/kg
mean half-life ([1]; adult EMs): 5.2 h
excretion in the feces [1, 4]: less than 17 % of the dose
excretion in the urine [1, 4]: greater than 80 % of the dose
